Test system: human washed platelets, SFLLRN-induced P-selectin, flow cytometry
Test: PAR1 agonist-induced platelet activation inhibition – cell-based, fluorescence, flow cytometry, human platelets, dose response (AID 2511)
Conditions: retest run 2

| EC50 [µM] | SMILES |
| --- | --- |
| < 3 | Cc1ccc(-n2c(N)c(C#N)c(-c3ccccc3)c(C#N)c2=O)cc1 |
| < 1 | O=C(Nc1cccc(NC(=O)c2ccccc2Cl)c1)c1ccco1 |
| < 10 | CCCCC(=O)Nc1cccc(NC(=O)c2ccccc2Br)c1 |
| < 1 | CCCC(=O)Nc1cccc(NC(=O)c2ccccc2Br)c1 |
| < 3 | CCC(=O)Nc1cccc(NC(=O)c2ccccc2Br)c1 |

Reference: PubChem BioAssay AID2511 (Broad Institute, 2010)
